Reference: PubChem BioAssay AID2060616 (Molecular Pharmacology Branch, DTP, NCI, 2025)
Where “and” joins values, the source holds several entries; their conditions need not be identical. Equal values may be shown once.

Test system: 377384-186-R-J1-PDC complex spheroid viability
Assay: Anticancer human tumor 377384-186-R-J1-PDC patient-derived pancreatic carcinoma cell line growth inhibition [CLK]
Details: for viability, T/C: stronger effect = lower value
Excerpt: A high-throughput screen of multi-cell type tumor spheroids was designed to identify active combinations of […] and targeted small molecules. Complex spheroids include a stromal component modeled by human endothelial cells (HUVEC) and fibroblasts modeled by human mesenchymal stem cells (MSCs). The concentration ranges selected for each drug and investigational agent were based upon clinically achievable concentrations if the clinical Cmax of the agent was known.
Compounds. The drugs and investigational agents: cirtuvivint (SM08502; NSC835563), CC-671 (NSC850746), vemurafenib (NSC761431), tapotoclax (NSC804041), sotorasib (NSC818433), adagrasib (NSC831453), MRTX-1133 (NSC836407), BAY2416964 (NSC825713), copanlisib (NSC816437), inavolisib (NSC800729), abemaciclib (NSC768073), osimertinib (NSC779217), entinostat (NSC756642), eltanexor (KPT-8602, NSC794443), venetoclax (NSC766270), ceralasertib (NSC777638), bortezomib (NSC756655), olaparib (NSC753686), talazoparib (NSC767125), alisertib (NSC759677), peposertib (NSC802822), gemcitabine (NSC613327), 5-fluorouracil (NSC19893), SN-38 (NSC673596), oxaliplatin (NSC266046), paclitaxel (NSC125973), and doxorubicin (NSC123127), were obtained from the National Cancer Institute (NCI) Developmental Therapeutics Program Chemical Repository. The FDA-approved anticancer drug set is available from the Developmental Therapeutics Program at https://dtp.cancer.gov/organization/dscb/obtaining/available plates.htm. […] The stock solutions were prepared in dimethyl sulfoxide (DMSO, Sigma-Aldrich, St. Louis, MO, cat. D2650), except for the platinum complexes which were prepared in saline (Quality Biological, Gaithersburg, MD, cat. 114-055-101), at 800-fold the tested concentration and stored at -70 degrees C prior to their use. All drugs and investigational agents were tested over a range starting from a high concentration at or near the clinical Cmax and decreasing in half-log increments. If the clinical Cmax for an agent had not been determined, the highest concentration tested was 10 microM.
Cell Culture. All cells were maintained in an incubator at 37 degrees C and 5% CO2 with 95% humidity. The PDC lines were cultured according to standard operating procedures established by the NCI PDMR. Briefly, all PDCs were thawed and cultured in Matrigel-coated flasks prepared with a working solution of 1X Ham's F-12 nutrient mix, without supplementation (Invitrogen, Waltham, MA, cat. 11765054), 100 U/mL penicillin-streptomycin (Invitrogen, cat. 15140122), and 2.5% Matrigel (Corning Inc., Corning, NY, cat. 354248) for the first three passages. The 947758-054-R-J2-PDC line was cultured in 6B/Colon 1A media, which includes advanced DMEM/F-12 (Thermo Fisher Scientific, cat. 12634028), 10 mM HEPES (Thermo Fisher Scientific, cat. 15630080), 1X GlutaMAX supplement (Thermo Fisher Scientific, cat. 35050061), 0.1 mg/mL primocin (InvivoGen, cat. ant-pm-2), 10% defined fetal bovine serum, heat inactivated (HyClone Laboratories Inc., cat. SH30070.03HI), 1.25 mM N-Acetyl-L-cysteine (Sigma-Aldrich, cat. A9165), 10 mM nicotinamide (Sigma-Aldrich, cat. N0636), 1X B-27 supplement (Thermo Fisher Scientific, cat. 17504044), 1X N-2 supplement (Thermo Fisher Scientific, cat. 17502048), and 10 microM Y-27632 dihydrochloride (Tocris Bioscience, cat. 1254). The 876862-298-R-J1-PDC was cultured in 6E media, which includes all 6B/Colon 1A media components plus 50% L-WRN conditioned media (ATCC, cat. CRL-3276), 50 ng/mL recombinant human EGF recombinant protein (hEGF; Thermo Fisher Scientific, cat. PHG0311), 10 ng/mL recombinant human fibroblast growth factor 10 (hGFG-10; PeproTech, cat. 100-26), 1 ng/mL recombinant human fibroblast growth factor 2 (hFGF-2; PeproTech, cat. 100-18B), and 1 µM prostaglandin E2 (PGE2; Tocris, cat. 2296). The 227483-062-R1-J1-PDC line was cultured in Panc media, containing all 6E components except hFGF-2, with the addition of 500 nM SB-431542 (Selleckchem, cat. S1067) and 10 nM gastrin (Tocris, cat. 3006). […]
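Note: spheroids exposed to agents for 7 days before reading.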
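Throughout, for viability, T/C: luminescence signal used as a stand-in for viable cells.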

Cn1ncnc1[C@H]1c2n[nH]c(=O)c3cc(F)cc(c23)N[C@@H]1c1ccc(F)cc1
viability, T/C (compound 0.000316 µM): 86.8% and 87.2%
viability, T/C (compound 0.001 µM): 73.7% and 74.4%
viability, T/C (compound 0.00316 µM): 62.4% and 66.9%
viability, T/C (compound 0.01 µM): 57.6% and 62.5%
viability, T/C (compound 0.0316 µM): 53.4% and 47.6%
viability, T/C (compound 0.1 µM): 41.8% and 43.1%
IC50 (curve of compound): 30.7 nM and 33.4 nM

CC(C)CC(NC(=O)C(Cc1ccccc1)NC(=O)c1cnccn1)B(O)O (centres undefined) + CN1CCN(c2cc(C(=O)Nc3cc4cc(-c5cnn(C)c5)ccc4cn3)ccn2)CC1
IC50 (curve of first compound, second compound 0.0316 µM): 1.66 nM
IC50 (curve of first compound, second compound 0.1 µM): 1.65 nM
IC50 (curve of first compound, second compound 0.316 µM): < 0.949 nM
IC50 (curve of first compound, second compound 1 µM): < 0.949 nM
IC50 (curve of first compound, second compound 3.16 µM): < 0.949 nM
IC50 (curve of first compound, second compound 10 µM): < 0.949 nM
viability, T/C (second compound 0.0316 µM, first compound 0.000949 µM): 95.5%
viability, T/C (second compound 0.0316 µM, first compound 0.003 µM): 2.33%
viability, T/C (second compound 0.0316 µM, first compound 0.00949 µM): 0.36%
viability, T/C (second compound 0.0316 µM, first compound 0.03 µM): 0.23%
viability, T/C (second compound 0.0316 µM, first compound 0.0949 µM): 0.25%
viability, T/C (second compound 0.0316 µM, first compound 0.3 µM): 0.18%
viability, T/C (second compound 0.1 µM, first compound 0.000949 µM): 94.8%
viability, T/C (second compound 0.1 µM, first compound 0.003 µM): 1.28%
viability, T/C (second compound 0.1 µM, first compound 0.00949 µM): 0.36%
viability, T/C (second compound 0.1 µM, first compound 0.03 µM): 0.22%
viability, T/C (second compound 0.1 µM, first compound 0.0949 µM): 0.23%
viability, T/C (second compound 0.1 µM, first compound 0.3 µM): 0.22%
viability, T/C (second compound 0.316 µM, first compound 0.000949 µM): 22.2%
viability, T/C (second compound 0.316 µM, first compound 0.003 µM): 1.48%
viability, T/C (second compound 0.316 µM, first compound 0.00949 µM): 0.19%
viability, T/C (second compound 0.316 µM, first compound 0.03 µM): 0.21%
viability, T/C (second compound 0.316 µM, first compound 0.0949 µM): 0.28%
viability, T/C (second compound 0.316 µM, first compound 0.3 µM): 2.08%
viability, T/C (second compound 1 µM, first compound 0.000949 µM): 0.64%
viability, T/C (second compound 1 µM, first compound 0.003 µM): 0.47%
viability, T/C (second compound 1 µM, first compound 0.00949 µM): 0.35%
viability, T/C (second compound 1 µM, first compound 0.03 µM): 0.22%
viability, T/C (second compound 1 µM, first compound 0.0949 µM): 0.4%
viability, T/C (second compound 1 µM, first compound 0.3 µM): 0.32%
viability, T/C (second compound 3.16 µM, first compound 0.000949 µM): 1.01%
viability, T/C (second compound 3.16 µM, first compound 0.003 µM): 1.51%
viability, T/C (second compound 3.16 µM, first compound 0.00949 µM): 0.92%
viability, T/C (second compound 3.16 µM, first compound 0.03 µM): 0.56%
viability, T/C (second compound 3.16 µM, first compound 0.0949 µM): 0.48%
viability, T/C (second compound 3.16 µM, first compound 0.3 µM): 1.78%
viability, T/C (second compound 10 µM, first compound 0.000949 µM): 0.25%
viability, T/C (second compound 10 µM, first compound 0.003 µM): 0.32%
viability, T/C (second compound 10 µM, first compound 0.00949 µM): 0.24%
viability, T/C (second compound 10 µM, first compound 0.03 µM): 0.24%
viability, T/C (second compound 10 µM, first compound 0.0949 µM): 0.43%
viability, T/C (second compound 10 µM, first compound 0.3 µM): 1.64%
